This is an account of results in patent publication US5294724A, “4-hydroxytetrahydropyran-2-ones and the corresponding dihydroxycarboxylic acid derivatives, salts and esters and a process for their preparation” (priority 1989, dated 1994).

One data set deals with serum lipoproteins. As to the kind of experiment: Action on serum lipoproteins and other metabolic parameters of male rats in the subchronic test. The format is in vivo. The following applies: rat. As for the experimental part: 3) Action on serum lipoproteins and other metabolic parameters of male rats in the subchronic test
Groups of male rats of the strain HOE: WISKf (SPF 71) having a starting weight of above 180 g received the test preparations daily in the morning (sodium salts of the dihydroxycarboxylic acids of the formula II) in polyethylene glycol 400 by stomach tube; the respective control group received only the vehicle. The last (7th) administration was carried out 24 hours before taking blood and sacrificing. There was free access to food and water during the experiment. 24 hours before taking blood, which wall carried out retroorbitally under slight ether anesthesia before and after the treatment period (i.e. on the 1st and 8th day), the food was withdrawn. Total cholesterol was determined in the serum of each individual animal [CHODPAP high performance method of Boehringer Mannheim], and, as a measure of the triglycerides, total glycerol was also determined analytically from the serum pool of all the animals of one group [GPO-PAP high performance method, Boehringer Mannheim].
Immediately after taking blood, the animals were sacrificed by dislocation of the spine, and the relative liver weight, the change in body weight and the food consumption were determined.
For the analysis of the serum lipoproteins, the serum of all the rats of one group was pooled. The serum lipoproteins were separated using the preparative ultracentrifuge.
The following conditions were used for the separation of the fractions VLDL, LDL and HDL:
The determination of the protein was carried out by the method of Lowry et al. [LOWRY O. H., ROSEBOROUGH, N.J., PARR, A. L. and RANDELL, R. J.: J. Biol. Chem. 193, 265 (1951)].

In data set [1] the test system is LDL. Put plainly: Inhibition of Cu2+-catalyzed LDL oxidation in vitro. The data set is classed as biochemical, porcine. The following applies: 5 μM Cu2+, 2 hours at 37° C., fluorescence 430 nm; read-out: IC50 (50% inhibition of LDL oxidation). On the procedure: 6) Inhibition of Cu^2+ -catalyzed LDL oxidation in vitro LDL was isolated from porcine plasma which contained EDTA (1 mg/ml) by ultracentrifugation in salt solutions of NaCl/NaBr between the densities 1.019 and 1.063 g/ml (cf. R. J. Havel et al., J. Clin. Invest. 43, 1345 (1955)). LDL was then dialyzed against phosphate-buffered saline (160 mM NaCl, 10 mM NaH2 PO4), pH 7.4 and stored under nitrogen at 4° C. Before the oxidation process, the LDL fractions were diluted to a final protein concentration of 0.1 mg/ml using phosphate-buffered saline and 2.5 ml aliquot parts were pre-incubated under nitrogen with the test compounds (25 μl of ethanolic solution) for 1 hour at 37° C. (cf. McLean et al., Biochemistry 1989, 28, 321). For the Cu^2+ -catalyzed oxidation of LDL, 12.5 μl of a 1 mM CuSO4 solution were added to each sample, a 5 μM Cu^2+ concentration resulting. The incubation was carried out for 2 hours at 37° C. and in an air atmosphere. The fluorescence intensity was measured at 430 nm (excitation wavelength 365 nm) (cf. Steinbrecher, U. P., J. Biol. Chem. 1987, 262, 3603). […] In addition, the inhibition using a 10^-5 N concentration of the test compound is indicated in %.

The subject of data set [2] is LDL. The note with it: cited from earlier work.
The mark [3] stands for this setting: 30 mg/kg daily by stomach tube, 7 administrations.

The structures appear in SMILES notation.

The IC50 is the concentration needed to halve the response being measured. Take `CC(C)(Sc1cc(C(C)(C)C)c(O)c(C(C)(C)C)c1)Sc1cc(C(C)(C)C)c(O)c(C(C)(C)C)c1` [probucol, reference compound]: in the data set on serum lipoproteins (setting [3]), the “Body weight, % changes in the mean value relative to starting” value is recorded as “+5%”; the “Glycerol VLDL, % change compared to control” value is “+24%”; the “Liver weight, % changes in the mean value relative to control” value is given as “+5%”; the “Protein LDL, % change compared to control” value is recorded as -23%. For the same compound, in the data set with serum lipoproteins (setting [3]), the “Protein VLDL, % change compared to control” value is reported as -6%; the “Total cholesterol HDL, % change compared to control” value is on record as -11%; the “Total cholesterol LDL, % change compared to control” value is -24%; the “Total cholesterol VLDL, % change compared to control” value is given as “+4%”. Moreover, the “Cholesterol HDL/LDL” value in the data set on serum lipoproteins (30 mg/kg daily, control standardization to 1.00) stood at 0.97. The 50% inhibitory concentration (IC50) in the data set with LDL [1] worked out at 500 nM. Further, the “oxidative modification of LDL in vivo” value in the data set on LDL [2] is reported as “prevents oxidative modification of LDL”. Besides, in the data set with LDL [2] (in vivo), the biliary cholesterol excretion result is “increases biliary cholesterol excretion”; the “lowering of LDL and HDL” value is “lowers both LDL and HDL”; the “plasma cholesterol-lowering action compared with a potent cholesterol biosynthesis inhibitor (such as mevinolin)” value is reported as “only poorly pronounced”; the “rate of catabolism of LDL” value is “increases the rate of catabolism of LDL”.
